# Experimental data from publication PMC8234462, “Novel Cyclophilin Inhibitor Decreases Cell Proliferation and Tumor Growth in Models of Hepatocellular Carcinoma” (Cancers, 2021).
# Key:
# [1] = set-up: method as in PMID 31717385; details: cited from earlier work
# [2] = test system: HEPG2; assay: Clonogenic assay; format: cell-based, human; details: continuously treated 14 days, crystal violet
# Description: (§1) Cells were seeded at 2500/mL and, starting 24 h later, provided with fresh medium and NV651 every day for the following 14 days. Then, colonies were stained with crystal violet, which was subsequently dissolved in 10% acetic acid and quantified by a spectrophotometer by absorbance at 595 nm.
# [3] = test system: Hep3B; assay: Clonogenic assay; format: cell-based, human; details: continuously treated 14 days, crystal violet
# Description: as §1
# [4] = test system: PLC/PRF/5; assay: Clonogenic assay; format: cell-based, human; details: continuously treated 14 days, crystal violet
# Description: as §1
# [5] = test system: Huh-7D12; assay: Clonogenic assay; format: cell-based, human; details: continuously treated 14 days, crystal violet
# Description: as §1
# [6] = Body weight during xenograft treatment; format: in vivo, NMRI nude mice; details: 10 mg/kg daily subcutaneous; 3 weeks
# Description: HEPG2 cells were transduced with RediFect Red-FLuc-GFP (Perkin Elmer, Cat# CLS960003, Waltham, MA, USA) with a MOI = 3 and sorted for GFP^+ in a FACSAria III (BD Biosciences, Franklin Lakes, NJ, USA). GFP^+Luciferase (Luc)^+ HEPG2 cells were confirmed to be negative for mycoplasma with the MycoAlert^TM Mycoplasma Detection Kit (Lonza, Cat# LT07-418, Basel, Switzerland). Cell viability and a percentage of the GFP^+ cells were analyzed before the start of the in vivo experiment with a BD FACSverse cytometer (BD Biosciences, Franklin Lakes, NJ, USA). Twenty NMRI nude female mice (6–8 weeks old) were injected in one flank with 1 million cells suspended in PBS with 50% Matrigel (Corning, Cat# 354230, Corning, NY, USA) in a total volume of 200 µL. […]
# Tumor growth was assessed with an in vivo imaging system (IVIS) one week after the injection of the cells. […] Body weights were measured at time 0 of the treatment and twice a week after the beginning of the treatment. […] Tumor growth was analyzed for up to 3 weeks. BLI signal intensity was quantified in total flux (photons/s) after deducting the average background signal from the measurement region of interest (ROI) around the tumor area using live image analysis software (PerkinElmer, Waltham, MA, USA).
# [7] = biological target: Cyp40 (Homo sapiens, UniProt Q08752); assay: PPIase activity assay (chymotrypsin-coupled); format: biochemical; details: free-cell assay; Cyp equilibrated 1 h at 5 °C with inhibitor; read-out: absolute IC50, PPIase activity Cyp40
# Chain of Cyp40 (Q08752 whole entry): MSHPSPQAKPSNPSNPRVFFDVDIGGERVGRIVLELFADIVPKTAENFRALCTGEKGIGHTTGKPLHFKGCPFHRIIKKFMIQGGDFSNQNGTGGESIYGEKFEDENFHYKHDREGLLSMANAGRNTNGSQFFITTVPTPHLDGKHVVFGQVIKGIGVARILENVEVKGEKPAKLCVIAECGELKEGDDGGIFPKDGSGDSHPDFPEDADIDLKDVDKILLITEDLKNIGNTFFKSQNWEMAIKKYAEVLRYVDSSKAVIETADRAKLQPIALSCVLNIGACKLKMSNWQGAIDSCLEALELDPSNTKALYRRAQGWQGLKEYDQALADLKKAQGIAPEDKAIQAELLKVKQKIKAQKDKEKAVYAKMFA
# Description: (§2) The PPIase activity of CypA, CypB, CypD and Cyp40 was determined by following the rate of hydrolysis of N-succinyl-Ala-Ala-Pro-Phe-p-nitroanilide by chymotrypsin, a digestive enzyme that only hydrolyzes the trans form of the peptide. Therefore, the hydrolysis of the cis form, the concentration of which is maximized by using a stock dissolved in trifluoroethanol containing 470-mM LiCl, is only possible with the isomerization from the cis to the trans form. […] The reaction was started with the peptide addition, and the change in absorbance was monitored spectrophotometrically at a 6-s interval for 6 min. The blank rates of hydrolysis (in the absence of Cyps) were subtracted from the rates in the presence of Cyps. The initial rates of the enzymatic reaction were analyzed by a first-order regression analysis of the time course of the change in absorbance.
# [8] = biological target: CypB (Homo sapiens, UniProt P23284); assay: PPIase activity assay (chymotrypsin-coupled); format: biochemical; details: free-cell assay; Cyp equilibrated 1 h at 5 °C with inhibitor; read-out: absolute IC50, PPIase activity CypB
# Chain of CypB (P23284 34-216): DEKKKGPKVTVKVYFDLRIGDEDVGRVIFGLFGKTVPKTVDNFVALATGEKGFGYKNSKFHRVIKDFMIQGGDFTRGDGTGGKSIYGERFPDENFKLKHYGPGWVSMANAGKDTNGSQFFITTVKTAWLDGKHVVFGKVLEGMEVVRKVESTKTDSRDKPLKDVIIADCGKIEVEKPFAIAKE
# Description: as §2
# [9] = biological target: CypA (Homo sapiens, UniProt P62937); assay: PPIase activity assay (chymotrypsin-coupled); format: biochemical; details: free-cell assay; Cyp equilibrated 1 h at 5 °C with inhibitor; read-out: absolute IC50, PPIase activity CypA
# Chain of CypA (P62937 whole entry): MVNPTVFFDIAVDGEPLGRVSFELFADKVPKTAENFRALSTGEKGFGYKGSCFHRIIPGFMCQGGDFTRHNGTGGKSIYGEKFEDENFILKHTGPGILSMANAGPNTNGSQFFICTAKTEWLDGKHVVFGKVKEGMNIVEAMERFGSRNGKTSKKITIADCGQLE
# Description: as §2
# [10] = biological target: CypD (Homo sapiens, UniProt P30405); assay: PPIase activity assay (chymotrypsin-coupled); format: biochemical; details: free-cell assay; Cyp equilibrated 1 h at 5 °C with inhibitor; read-out: absolute IC50, PPIase activity CypD
# Chain of CypD (P30405 30-207): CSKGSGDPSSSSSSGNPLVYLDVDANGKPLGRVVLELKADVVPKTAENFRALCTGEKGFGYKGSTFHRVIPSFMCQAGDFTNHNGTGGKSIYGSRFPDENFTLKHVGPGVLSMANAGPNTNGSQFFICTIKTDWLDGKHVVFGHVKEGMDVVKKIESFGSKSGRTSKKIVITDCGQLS
# Description: as §2
# [11] = test system: human-derived normal cells; assay: Cytotoxicity panel of human-derived normal cells (overall); format: cell-based; details: overall statement
# Description: The evaluation of the off-target effects of NV651 was performed by ImQuest BioSciences Inc. (Frederick, MD, USA) by analyzing the cytotoxicity in a panel of primary cells. NV651 was evaluated at a concentration of 30 µM and five serial half-logarithmic dilutions in triplicate. The positive control compounds for each cell type were purchased from Sigma-Aldrich (St. Louis, MO, USA) and were as follows: […]
# [12] = test system: RPTECs; assay: Cytotoxicity, CellTiter Glo; format: cell-based, human; details: Homo sapiens, RPTEC, 72 h, 3 days of treatment, read-out: IC50 (50% reduction in cell viability)
# Description: The evaluation of the off-target effects of NV651 was performed by ImQuest BioSciences Inc. (Frederick, MD, USA) by analyzing the cytotoxicity in a panel of primary cells. NV651 was evaluated at a concentration of 30 µM and five serial half-logarithmic dilutions in triplicate. The positive control compounds for each cell type were purchased from Sigma-Aldrich (St. Louis, MO, USA) and were as follows: Unstimulated human peripheral blood mononuclear cells (PBMCs), phytohemagglutinin (PHA)-stimulated PBMCs, monocytes/macrophages, dendritic cells, hepatocytes, induced pluripotent stem cell (iPS) neurons: […] AZT, kidney cells (RPTEC): cisplatin and iPS cardiomyocytes: Doxazosin. Human primary renal proximal tubule cells (hRPTEC, Lonza, Basel, Switzerland) were cultured at 1 × 10^4 cells/well in supplemented REGM medium (Lonza, Basel, Switzerland). Following overnight incubation for adherence, cells were treated with NV651 in triplicate. After a 3-day treatment, CellTiter Glo (Promega, Madison, WI, USA) was used. CellTiter Glo was performed to evaluate cell viability. CellTiter Glo Luminescent Cell Viability Assay (Promega, Madison, WI, USA) was performed according to the manufacturer’s instructions.
structure (smiles),measurement,setting,value
CC(=O)CCC1C(=O)NC(C(C)C)C(=O)NC(Cc2cc(O)cc(F)c2)C(=O)N2CCCC(N2)C(=O)OC(C(C)=CC=CC(=O)OC(C)(C)C)CC=CC=CC(O)C(C)C1O (stereo not drawn) [NV651],immunosuppressant activity,[1],no immunosuppressant activity
same,number of colonies,[2],reduced the number of colonies
same,number of colonies,[3],reduced the number of colonies
same,number of colonies,[4],reduced the number of colonies
same,number of colonies,[5],reduced the number of colonies
same,body weight,[6],no significant changes
same,IC50,[7],0.821 nM
same,IC50,[8],0.824 nM
same,IC50,[9],0.49 nM
same,IC50,[10],0.842 nM
same,IC50,[11],> 20 µM
same,IC50,[12],20.9 µM
